Laboratory results as given in patent publication US6984649B1, “Pyridine derivatives” (Bayer Aktiengesellschaft, priority 2000, dated 2006).
Counter-ions that a name gives are not always drawn.

Tested on: A549 human lung epithelium cell line
Assay: RANTES production in response to TNF-α from A549 cells
Assay type: cell-based
Settings: Homo sapiens, A549, A549 cells, 100 ng/ml TNF-α, read-out: Cellular activity grade (A549) (Cellular IC50)
Method in brief: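 Cells (4×10^4/well) in D-MEM/10% FCS preincubated 1 h at 37 °C with compound in 1% DMSO, then stimulated with 100 ng/ml TNF-α for 24 h. Supernatant RANTES quantified by Eu-labelled sandwich immunoassay (time-resolved fluorescence, ex 340/em 615 nm) against recombinant human RANTES standard.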

IC50, 1000 to 10000 nM:
N#Cc1c(N)nc(-c2ccccc2O)c(F)c1C1CCCNC1 (centres unmarked) [Example 1-4, 2-amino-5-fluoro-6-(2-hydroxyphenyl)-4-(3-piperidinyl)-nicotinonitrile trifluoroacetate]
CC1(c2cc(-c3ccccc3O)nc(N)c2C#N)CCCNC1 (centres unmarked) [Example 1-3, 2-amino-6-(2-hydroxyphenyl)-4-(3-methylpiperidin-3-yl)-nicotinonitrile hydrochloride]
Nc1nc(-c2c(O)cccc2OCC2CC2)cc(C2CCCNC2)c1CSc1ccccc1 (centres unmarked) [Example 21-1, 2-[6-amino-5-[(phenylsulfanyl)methyl]-4-(3-piperidinyl)-2-pyridinyl]-3-(cyclopropylmethoxy)phenol hydrochloride]
NC(Cc1ccccc1)c1cc(-c2ccccc2O)nc2c1COC(=O)N2 (centres unmarked) [Example 18-4/18-5, 5-(1-Amino-2-phenyl-ethyl)-7-(2-hydroxy-phenyl)-1,4-dihydro-pyrido[2,3-d][1,3]oxazin-2-one hydrochloride]
O=C(O)c1cc2c(C3CCCNC3)cc(-c3c(O)cccc3OCC3CC3)nc2[nH]c1=O (centres unmarked) [Example 30-1, 7-(2-cyclopropylmethoxy-6-hydroxy-phenyl)-2-oxo-5-piperidin-3-yl-1,2-dihydro[1,8]naphthyridine-3-carboxylic acid hydrochloride]
N#Cc1ccc(-c2ccccc2O)nc1N [Example 33-1, 2-amino-6-(2-hydroxyphenyl)nicotinonitrile]

IC50, < 1000 nM:
N#Cc1c(C2CCNC2)cc(-c2ccccc2O)nc1N (centres unmarked) [Example 1-2, 2-amino-6-(2-hydroxyphenyl)-4-(3-pirrolidinyl)nicotinonitrile trifluoroacetate]
CCCNC(=O)c1cc2c(C3CCCNC3)cc(-c3c(O)cccc3OCC3CC3)nc2[nH]c1=O (centres unmarked) [Example 31-1, 7-[2-(cyclopropylmethoxy)-6-hydroxyphenyl]-2-oxo-5-(3-pipedinyl)-N-propyl-1,2-dihydro-1,8-naphthyridine-3-carboxamide]
COCc1c(C2CCCNC2)cc(-c2ccccc2O)nc1N (centres unmarked) [Example 13-1, 2-[6-amino-5-(methoxymethyl)-4-(3-piperidinyl)-2-pyridinyl]phenol hydrochloride]
CCOC(=O)NCc1c(C2CCCNC2)cc(-c2c(O)cccc2OCC2CC2)nc1N (centres unmarked) [Example 23-2, ethyl [2-amino-6-[2-(cyclopropylmethoxy)-6-hydroxyphenyl]-4-(3-piperidinyl)-3-pyridinyl]methylcarbamate hydrochloride]
O=C1NCc2c(C3CCNCC3)cc(-c3c(O)cccc3OCC3CC3)nc2N1 [Example 22-3, 7-[2-(cyclopropylmethoxy)-6-hydroxyphenyl]-5-(4-piperidinyl)-3,4-dihydro-1H-pyrido[2,3-d]pyrimidin-2-one hydrochloride]
CC(=O)NCc1c(C2CCCNC2)cc(-c2c(O)cccc2OCC2CC2)nc1N (centres unmarked) [Example 23-1, N-{[2-amino-6-[2-(cyclopropylmethoxy)-6-hydroxyphenyl]-4-(3-piperidinyl)-3-pyridinyl]methyl}acetamide hydrochoride]
CC(=O)N1Cc2c(C3CCCNC3)cc(-c3c(O)cccc3OCC3CC3)nc2NC1=O (centres unmarked) [Example 24-1, 3-acetyl-7-[2-(cyclopropylmethoxy)-6-hydroxyphenyl]-5-(3-piperidinyl)-3,4-dihydropyrido[2,3-d]pyrimidin-2(1H)-one hydrochloride]

IC50, > 10000 nM:
CC(=O)Nc1cccc(O)c1-c1cc(C2CCCNC2)c(C#N)c(N)n1 (centres unmarked) [Example 1-12, N-{2-[6-amino-5-cyano-4-(3-piperidinyl)-2-pyridinyl]-3-hydroxyphenyl}acetamide hydrochloride]
N#Cc1c(C2CCCNC2)cc(-c2c(O)cccc2NCc2ccccc2)nc1N (centres unmarked) [Example 1-11, 2-amino-6-[2-(benzylamino)-6-hydroxyphenyl]-4-(3-piperidinyl)nicotinonitrile hydrochloride]

Tested on: Jurkat T cells
Assay: IL-2 production in Jurkat T cells in response to anti-CD3/anti-CD28 antibody stimulation
Assay type: cell-based
Settings: Homo sapiens, read-out: Cellular activity grade (Jurkat) (Cellular IC50)

IC50, 1 to 10 µM:
N#Cc1c(N)nc(-c2ccccc2O)c(F)c1C1CCCNC1 (centres unmarked) [Example 1-4, 2-amino-5-fluoro-6-(2-hydroxyphenyl)-4-(3-piperidinyl)-nicotinonitrile trifluoroacetate]
N#Cc1c(C2CCNC2)cc(-c2ccccc2O)nc1N (centres unmarked) [Example 1-2, 2-amino-6-(2-hydroxyphenyl)-4-(3-pirrolidinyl)nicotinonitrile trifluoroacetate]
